System: Staphylococcus aureus ATCC 29213
Assay: Time kill efficacy against Staphylococcus aureus ATCC 29213 (log drop after 30 seconds of exposure)
Assay type: cell-based
Protocol: Time kill efficacy experiments were performed against Staphylococcus aureus ATCC 29213 (S aureus). Plates with Tryptic Soy agar (TSA) were inoculated with cultures of S aureus and incubated at 30-35° C. for 24 hours. Bacterial cultures were harvested and sample suspensions were adjusted to contain approximately […] colony-forming units (CFU) per milliliter. […] After 30 seconds of exposure, 1 mL of the test suspension was removed and added to 9.0 ml of Dey-Engley neutralizer. One hundred μL of this neutralized suspension was plated in triplicates on TSA plates using an automated spiral plating instrument (Eddyjet 2, Neutec group Inc, New York, USA), with 7 log serial dilution mode. All bacterial plates were incubated at 30-35° C. for 2 days. The log drop values are determined as the difference between the logged CFU in the plates with and without the test article.

sodium chlorite
Δ log reduction in the presence of 0.5% Brij 35 compared to alone (0.5% Brij 35 added to 5% povidone-iodine or to 8000 ppm sodium chlorite activated at pH 5, FIGS. 5A-5B): 1.6 | Δ log reduction in the presence of 0.5% Pluronic F-127 compared to alone (0.5% Pluronic F-127 added to 5% povidone-iodine or to 8000 ppm sodium chlorite activated at pH 5, FIGS. 5A-5B): 1.46 | Δ log reduction in the presence of 0.5% polysorbate 80 compared to alone (0.5% polysorbate 80 added to 5% povidone-iodine or to 8000 ppm sodium chlorite activated at pH 5, FIGS. 5A-5B): 2.9 | kill efficacy compared to sodium chlorite-only formulations and 5% povidone-iodine (800 ppm-8000 ppm sodium chlorite, pH 5 buffer, with 0.5% PS80, FIG. 2): more efficacious than sodium chlorite-only formulations | kill efficacy compared to 5% povidone-iodine (4800 ppm and 6400 ppm sodium chlorite, pH 5 buffer, without PS80, FIG. 2): more efficacious than 5% povidone-iodine | log reductions, alone (8000 ppm sodium chlorite activated at pH 5, alone, FIG. 5B): 2.0-3.0 | efficacy with 0.5% polysorbate 80 compared to formulations containing 0.5% Brij 35 or 0.5% Pluronic F-127 (8000 ppm sodium chlorite activated at pH 5, FIG. 5B): significantly greater | log reduction (8000 ppm sodium chlorite activated with pH 2 buffer, 30 seconds exposure, FIG. 1, n=3): 5.0 | log reduction (8000 ppm sodium chlorite activated with pH 3 buffer, 30 seconds exposure, FIG. 1, n=3): 5.0 | log reduction (8000 ppm sodium chlorite activated with pH 4 buffer, 30 seconds exposure, FIG. 1, n=3): 5.0 | log reduction (8000 ppm sodium chlorite activated with pH 5 buffer, 30 seconds exposure, FIG. 1, n=3): 2.4 | effect of 0.5% PS80 on log reduction (8000 ppm sodium chlorite pH4, 10% FBS, 0.5% PS80, FIG. 6): significantly increased the log reduction | bactericidal effectiveness on addition of PS80 at lower concentrations (8000 ppm sodium chlorite pH 4, 10% FBS, PS80 0.015% or 0.025%, FIG. 6): not significantly affected | effect of the presence of FBS on log reduction (8000 ppm sodium chlorite pH 4 and 0.5% PS80, with 10% FBS, FIG. 6): essentially unaffected | effect of added Brij 35 on kill efficacy (8000 ppm sodium chlorite pH 5 plus Brij 35 0.05%-0.5%, FIG. 3): enhanced the efficacy | effect of added Pluronic F-127 on kill efficacy (8000 ppm sodium chlorite pH 5 plus Pluronic F-127 at 0.25% and 0.5%, FIG. 4, N=1): appeared to augment the efficacy | log reduction (8000 ppm sodium chlorite, pH 4 buffer, absence of both 10% FBS and PS80, FIG. 6): about 5 | log reduction (8000 ppm sodium chlorite, pH 4 buffer, in the presence of 10% FBS (organic load), no PS80, FIG. 6): about 2

— patent publication US20260102425A1 (Allergan, Inc., priority 2018, published 2026)
